PubChem BioAssay AID1919004 (Molecular Pharmacology Branch, DTP, NCI, 2023)
“And” between values parts separate entries of the source, which are not always exact repeats. Equal values may be shown once.

Tested on: 883617-216-R-J1-PDC complex spheroids, growth, % test/control
Experiment: Anticancer human tumor 883617-216-R-J1-PDC patient-derived bladder carcinoma cell line growth inhibition [AhR]
Settings: for viability, T/C: stronger effect = lower value
How it was run: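 Complex tumor spheroids co-cultured with HUVEC and human MSC stroma; AhR antagonists tested in combination with standard-of-care and investigational agents. Top concentration at or near clinical Cmax (else 10 microM), half-log dilutions; growth expressed as percent test/control.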

[1] = curve of first compound, second compound 0.1 µM
[2] = curve of first compound, second compound 0.316 µM
[3] = curve of first compound, second compound 1 µM
[4] = curve of first compound, second compound 3.16 µM
[5] = curve of first compound, second compound 10 µM
[6] = second compound 0.1 µM, first compound 0.0316 µM
[7] = second compound 0.1 µM, first compound 0.1 µM
[8] = second compound 0.316 µM, first compound 0.0316 µM
[9] = second compound 0.316 µM, first compound 0.1 µM
[10] = second compound 1 µM, first compound 0.0316 µM
[11] = second compound 1 µM, first compound 0.1 µM
[12] = second compound 3.16 µM, first compound 0.0316 µM
[13] = second compound 3.16 µM, first compound 0.1 µM
[14] = second compound 10 µM, first compound 0.0316 µM
[15] = second compound 10 µM, first compound 0.1 µM
[16] = second compound 0.1 µM, first compound 0.316 µM
[17] = second compound 0.1 µM, first compound 1 µM
[18] = second compound 0.1 µM, first compound 3.16 µM
[19] = second compound 0.1 µM, first compound 10 µM
[20] = second compound 0.316 µM, first compound 0.316 µM
[21] = second compound 0.316 µM, first compound 1 µM
[22] = second compound 0.316 µM, first compound 3.16 µM
[23] = second compound 0.316 µM, first compound 10 µM
[24] = second compound 1 µM, first compound 0.316 µM
[25] = second compound 1 µM, first compound 1 µM
[26] = second compound 1 µM, first compound 3.16 µM
[27] = second compound 1 µM, first compound 10 µM
[28] = second compound 3.16 µM, first compound 0.316 µM
[29] = second compound 3.16 µM, first compound 1 µM
[30] = second compound 3.16 µM, first compound 3.16 µM
[31] = second compound 3.16 µM, first compound 10 µM
[32] = second compound 10 µM, first compound 0.316 µM
[33] = second compound 10 µM, first compound 1 µM
[34] = second compound 10 µM, first compound 3.16 µM
[35] = second compound 10 µM, first compound 10 µM
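Also: exposure lasted 7 days after dosing on day 3 of spheroid growth.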

CC[C@@]1(O)C(=O)OCc2c1cc1n(c2=O)Cc2cc3c(CN(C)C)c(O)ccc3nc2-1 + Cc1cncc(-c2nc(NCCc3c[nH]c4ccccc34)c3ncn(C(C)C)c3n2)c1
IC50 [1]: > 100 nM
IC50 [2]: > 100 nM
IC50 [3]: > 100 nM
IC50 [4]: > 100 nM
IC50 [5]: < 0.316 nM
viability, T/C (second compound 0.1 µM, first compound 0.000316 µM): 76.2%
viability, T/C (second compound 0.1 µM, first compound 0.001 µM): 75.1%
viability, T/C (second compound 0.1 µM, first compound 0.00316 µM): 79.8%
viability, T/C (second compound 0.1 µM, first compound 0.01 µM): 71%
viability, T/C [6]: 69.8%
viability, T/C [7]: 74.3%
viability, T/C (second compound 0.316 µM, first compound 0.000316 µM): 86.3%
viability, T/C (second compound 0.316 µM, first compound 0.001 µM): 80.7%
viability, T/C (second compound 0.316 µM, first compound 0.00316 µM): 74.3%
viability, T/C (second compound 0.316 µM, first compound 0.01 µM): 79.4%
viability, T/C [8]: 68.1%
viability, T/C [9]: 64.7%
viability, T/C (second compound 1 µM, first compound 0.000316 µM): 93.5%
viability, T/C (second compound 1 µM, first compound 0.001 µM): 93.9%
viability, T/C (second compound 1 µM, first compound 0.00316 µM): 83.9%
viability, T/C (second compound 1 µM, first compound 0.01 µM): 85.6%
viability, T/C [10]: 88.9%
viability, T/C [11]: 76.7%
viability, T/C (second compound 3.16 µM, first compound 0.000316 µM): 96.6%
viability, T/C (second compound 3.16 µM, first compound 0.001 µM): 84.6%
viability, T/C (second compound 3.16 µM, first compound 0.00316 µM): 89.7%
viability, T/C (second compound 3.16 µM, first compound 0.01 µM): 91.9%
viability, T/C [12]: 84.6%
viability, T/C [13]: 73.1%
viability, T/C (second compound 10 µM, first compound 0.000316 µM): 45.7%
viability, T/C (second compound 10 µM, first compound 0.001 µM): 47.8%
viability, T/C (second compound 10 µM, first compound 0.00316 µM): 47.9%
viability, T/C (second compound 10 µM, first compound 0.01 µM): 46.8%
viability, T/C [14]: 35.4%
viability, T/C [15]: 32.1%

Nc1ccn(C2OC(CO)C(O)C2(F)F)c(=O)n1 (stereo unspecified) + CC(CO)NC(=O)c1cc(-c2ccc(Cl)cc2)nn(-c2cnn(C)c2)c1=O
IC50 [1]: > 10000 nM
IC50 [2]: > 10000 nM
IC50 [3]: > 10000 nM
IC50 [4]: > 10000 nM
IC50 [5]: > 10000 nM
viability, T/C [6]: 82.9%
viability, T/C [7]: 91.6%
viability, T/C [16]: 95.4%
viability, T/C [17]: 88.3%
viability, T/C [18]: 58.7%
viability, T/C [19]: 85.3%
viability, T/C [8]: 82.2%
viability, T/C [9]: 99%
viability, T/C [20]: 97.8%
viability, T/C [21]: 84.8%
viability, T/C [22]: 85.8%
viability, T/C [23]: 86.3%
viability, T/C [10]: 96.8%
viability, T/C [11]: 76.4%
viability, T/C [24]: 113%
viability, T/C [25]: 77.7%
viability, T/C [26]: 75.7%
viability, T/C [27]: 72.1%
viability, T/C [12]: 81%
viability, T/C [13]: 91.8%
viability, T/C [28]: 108%
viability, T/C [29]: 52.7%
viability, T/C [30]: 63.4%
viability, T/C [31]: 63.5%
viability, T/C [14]: 63.2%
viability, T/C [15]: 124%
viability, T/C [32]: 87%
viability, T/C [33]: 72.7%
viability, T/C [34]: 78.2%
viability, T/C [35]: 76.6%

NS(=O)(=O)OCC1CC(n2ccc3c(NC4CCc5ccccc54)ncnc32)CC1O (stereo unspecified) + Cc1ccccc1N=Nc1ccc(NC(=O)c2ccnn2C)c(C)c1
IC50 [1]: 2500 nM
IC50 [2]: 2350 nM
IC50 [3]: 2480 nM
IC50 [4]: 2480 nM
IC50 [5]: 2690 nM
viability, T/C [6]: 143%
viability, T/C [7]: 184%
viability, T/C [16]: 253%
viability, T/C [17]: 137%
viability, T/C [18]: 37.4%
viability, T/C [19]: 18.3%
viability, T/C [8]: 131%
viability, T/C [9]: 173%
viability, T/C [20]: 240%
viability, T/C [21]: 119%
viability, T/C [22]: 30.9%
viability, T/C [23]: 20.6%
viability, T/C [10]: 127%
viability, T/C [11]: 156%
viability, T/C [24]: 256%
viability, T/C [25]: 125%
viability, T/C [26]: 39.3%
viability, T/C [27]: 20.9%
viability, T/C [12]: 121%
viability, T/C [13]: 146%
viability, T/C [28]: 233%
viability, T/C [29]: 128%
viability, T/C [30]: 37.4%
viability, T/C [31]: 18.5%
viability, T/C [14]: 118%
viability, T/C [15]: 179%
viability, T/C [32]: 210%
viability, T/C [33]: 125%
viability, T/C [34]: 43.6%
viability, T/C [35]: 17.4%

CC(C)CC(NC(=O)C(Cc1ccccc1)NC(=O)c1cnccn1)B(O)O (stereo unspecified)
viability, T/C (compound 0.000949 µM): 97.1% and 98.4% and 72.1%
viability, T/C (compound 0.003 µM): 105% and 94.3% and 10.1%
viability, T/C (compound 0.03 µM): 0.36% and 0.18% and 1.33%
viability, T/C (compound 0.0949 µM): 0.25% and 0.13% and 2.71%
viability, T/C (compound 0.3 µM): 0.36% and 0.19% and 3.19%
IC50 (curve of compound): 7.45 nM and 7.16 nM and 1.43 nM
